Consider eight compounds from ChEMBL document CHEMBL1201862, “PubChem BioAssay data set” (2004).

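Results reflect a 48-hour exposure of cells in 96-well plates to compound at five concentrations. At the GI50, growth is halved.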 The source made the active and inactive calls. No stated cut-off is given here; in the data, active = GI50 up to about 1.1 µM and inactive = higher. Some results are limits rather than exact numbers.

Some test systems named below: OVCAR-3; HL-60; LOX IMVI; NCI/ADR-RES; HOP-62; M14; HOP-92; U-251; SN12C; SNB-19; OVCAR-8; A498; TK-10; SK-MEL-28; UO-31; OVCAR-5; NCI-H522; SF-295; 786-0; HCC 2998.
What all share (experiment): NCI-60 cell line screen, 48 h

With `CCC(C)C1NC(=O)C(NC(=O)c2c3nc4c(C(=O)NC5C(=O)NC(C(C)CC)C(=O)N6CCCC6C(=O)N(C)CC(=O)N(C)C(C(C)C)C(=O)OC5C)ccc(C)c4oc-3c(C)c(=O)c2O)C(C)OC(=O)C(C(C)C)N(C)C(=O)CN(C)C(=O)C2CCCN2C1=O` (stereo not given), the GI50 was 3.24 µM (inactive) with OVCAR-3; 2.81 µM (inactive) in the experiment with HL-60; 0.532 µM (active) in the experiment on LOX IMVI; 21.9 µM (inactive) in the experiment on NCI/ADR-RES; 2.99 µM (inactive) in the experiment with HOP-62; 4.2 µM (inactive) in the experiment with M14. The GI50 is 6.76 µM (inactive) in the experiment on HOP-92; 1.05 µM (active) in the experiment on U-251; 1.17 µM (inactive) in the experiment on SN12C; 11.5 µM (inactive) in the experiment on SNB-19; 1.6 µM (inactive) in the experiment with OVCAR-8; 2.84 µM (inactive) in the experiment with A498. The GI50 in the experiment on TK-10 was 10.2 µM (inactive); with SK-MEL-28 it was 5.24 µM (inactive); in the experiment with UO-31, 10.4 µM (inactive); with OVCAR-5, 11.6 µM (inactive); in the experiment with NCI-H522, 0.295 µM (active); with SF-295, 3.61 µM (inactive). The values for the GI50 in the experiment on 786-0 and in the experiment on HCC 2998 were 3.37 µM (inactive) and 3.16 µM (inactive), respectively.
As for `C/C(=N\NC(N)=S)c1sc(-n2nc(-c3ccccc3)cc2-c2ccccc2)nc1C`, the GI50 with OVCAR-3 was 98.2 µM (inactive); with HL-60, 54.6 µM (inactive); with LOX IMVI, 71.9 µM (inactive); in the experiment with NCI/ADR-RES, 67.1 µM (inactive); with HOP-62, > 100 µM (inactive); in the experiment with M14, > 100 µM (inactive). In addition, the GI50 with HOP-92, in the experiment with U-251, with SN12C, in the experiment with SNB-19, with OVCAR-8 and in the experiment on A498 was > 100 µM (inactive) in each case. Moreover, the GI50 in the experiment with TK-10 is > 100 µM (inactive); in the experiment on SK-MEL-28 it was > 100 µM (inactive); with UO-31, 69.7 µM (inactive); in the experiment with OVCAR-5, > 100 µM (inactive); in the experiment on NCI-H522, 79.4 µM (inactive); in the experiment with SF-295, > 100 µM (inactive). Besides, the GI50 with 786-0 and in the experiment on HCC 2998 was > 100 µM (inactive) throughout.
As to `CCCc1cn2c(/C=N/NC(=N)N)c(-c3ccc([N+](=O)[O-])cc3)nc2s1`, the GI50 is 0.548 µM (active) with OVCAR-3; 0.45 µM (active) in the experiment on HL-60; 1.39 µM (inactive) in the experiment on LOX IMVI; 1.89 µM (inactive) in the experiment on NCI/ADR-RES; 1.77 µM (inactive) in the experiment with HOP-62; 1.93 µM (inactive) with M14. The GI50 in the experiment on HOP-92 was 6.01 µM (inactive); in the experiment on U-251, 0.769 µM (active); in the experiment on SN12C, 1.58 µM (inactive); with SNB-19 it was 1.71 µM (inactive); with OVCAR-8 it was 1.9 µM (inactive); with A498, 5.26 µM (inactive). The GI50 in the experiment with TK-10 was 1.81 µM (inactive); with SK-MEL-28, 1.85 µM (inactive); with UO-31 it was 1.91 µM (inactive); in the experiment on OVCAR-5, 1.71 µM (inactive); with NCI-H522 it was 2.08 µM (inactive); in the experiment on SF-295 it was 0.912 µM (active). The GI50 in the experiment on 786-0 is 0.853 µM (active); in the experiment with HCC 2998, 0.578 µM (active).
For `CCCCCCCCCCC(O)[C@H]1CCC(C2CC[C@H]([C@H](O)CCCCCCCCCCC(O)CC3=CC(C)OC3=O)O2)O1` (stereo not given in full), the GI50 with OVCAR-3 was 1.71 µM (inactive); in the experiment on HL-60, 1.77 µM (inactive); in the experiment with LOX IMVI, 1.38 µM (inactive); with NCI/ADR-RES, 0.211 µM (active); with HOP-62, 1.97 µM (inactive); in the experiment on M14 it was 1.69 µM (inactive). For the same compound, the GI50 was 2.44 µM (inactive) in the experiment with HOP-92; 3.03 µM (inactive) with U-251; 2.25 µM (inactive) with SN12C; 1.82 µM (inactive) with SNB-19; 1.48 µM (inactive) in the experiment on OVCAR-8; 2.17 µM (inactive) with A498. The GI50 with TK-10 was 1.59 µM (inactive); in the experiment with SK-MEL-28, 2.05 µM (inactive); in the experiment with UO-31, 1.15 µM (inactive); with OVCAR-5 it was 3.08 µM (inactive); in the experiment with NCI-H522 it was 1.46 µM (inactive); with SF-295, 0.214 µM (active). The GI50 is 3.51 µM (inactive) in the experiment on 786-0 and 3.59 µM (inactive) with HCC 2998.
With `Nc1ncc(Cl)c(NCC2(CO)CC(CCc3ccccc3)C2)n1` (stereo not given), the GI50 in the experiment on OVCAR-3 is > 100 µM (inactive); in the experiment with HL-60, 1.13 µM (inactive); with LOX IMVI, 0.785 µM (active); in the experiment with NCI/ADR-RES, 3.61 µM (inactive); in the experiment with HOP-62, > 100 µM (inactive); in the experiment on M14, > 100 µM (inactive). The GI50 was 5.69 µM (inactive) in the experiment with HOP-92; 44.6 µM (inactive) in the experiment on U-251; > 100 µM (inactive) with SN12C; > 100 µM (inactive) in the experiment with SNB-19; 44 µM (inactive) in the experiment on OVCAR-8; > 100 µM (inactive) with A498. The GI50 in the experiment with TK-10 was 14.4 µM (inactive); with SK-MEL-28, > 100 µM (inactive); with UO-31, > 100 µM (inactive); in the experiment on OVCAR-5, > 100 µM (inactive); with NCI-H522 it was > 76.2 µM (inactive); in the experiment with SF-295 it was 5.2 µM (inactive). Moreover, the GI50 in the experiment with 786-0 and in the experiment on HCC 2998 was > 100 µM (inactive) throughout.
`Cc1ccc2c(c1)C(=O)c1[nH]c3ccc(F)cc3c1CO2`: the GI50 with OVCAR-3 was 36.6 µM (inactive); with HL-60 it was > 100 µM (inactive); with LOX IMVI, 21.5 µM (inactive); in the experiment with NCI/ADR-RES, 58.5 µM (inactive); in the experiment on HOP-62, 10.1 µM (inactive); with M14, 18.8 µM (inactive). The GI50 in the experiment on HOP-92 is 81.8 µM (inactive); in the experiment on U-251, 18.5 µM (inactive); with SN12C, > 100 µM (inactive); in the experiment with SNB-19, 14.3 µM (inactive); in the experiment with OVCAR-8, 15.8 µM (inactive); with A498, 79.4 µM (inactive). The GI50 in the experiment on TK-10 was 31.8 µM (inactive); in the experiment on SK-MEL-28, 97.1 µM (inactive); with UO-31, > 100 µM (inactive); in the experiment on OVCAR-5, > 100 µM (inactive); in the experiment with NCI-H522, 36.6 µM (inactive); with SF-295, 11.4 µM (inactive). For the same compound, the GI50 in the experiment with 786-0 was 12.1 µM (inactive); with HCC 2998, > 100 µM (inactive).
As to `COC(=O)/C=C/CCC#Cc1ccccc1C#CCC/C=C/C(=O)OC`, the GI50 in the experiment on OVCAR-3 was 3.58 µM (inactive); in the experiment on HL-60 it was 2.7 µM (inactive); in the experiment with LOX IMVI, 4.99 µM (inactive); in the experiment on NCI/ADR-RES, 8.28 µM (inactive); in the experiment with HOP-62, 24.2 µM (inactive); in the experiment with M14, 8.97 µM (inactive). For the same compound, the GI50 was 15.7 µM (inactive) with HOP-92; 4.32 µM (inactive) in the experiment on U-251; 7.38 µM (inactive) in the experiment on SN12C; 4.97 µM (inactive) in the experiment with SNB-19; 6.46 µM (inactive) in the experiment with OVCAR-8; 38.5 µM (inactive) in the experiment on A498. The GI50 in the experiment on TK-10 is 30.7 µM (inactive); in the experiment with SK-MEL-28, 47.5 µM (inactive); in the experiment on UO-31, 19.5 µM (inactive); in the experiment on OVCAR-5 it was 23.5 µM (inactive); with NCI-H522, 3.57 µM (inactive); in the experiment on SF-295, 13.2 µM (inactive). The GI50 is 4.98 µM (inactive) in the experiment on 786-0 and 50.1 µM (inactive) in the experiment on HCC 2998.
As to `C=C(C)[C@@H](O)[C@H](O)C[C@H](C)C1CC[C@]2(C)C1=CC[C@@H]1[C@@]3(C)CC[C@@H](OC(C)=O)C(C)(C)[C@@H]3C[C@@H](OC3OC(COC(C)=O)C(O)C(O)C3O)[C@]12C` (stereo not given in full), the GI50 in the experiment on OVCAR-3 is 2.17 µM (inactive); with HL-60, 2.05 µM (inactive); in the experiment on LOX IMVI, 1.73 µM (inactive); in the experiment on NCI/ADR-RES it was 15 µM (inactive); with HOP-62, 2.99 µM (inactive); in the experiment on M14 it was 2.72 µM (inactive). In addition, the GI50 was 2.37 µM (inactive) in the experiment on HOP-92; 2.32 µM (inactive) with U-251; 3.21 µM (inactive) in the experiment with SN12C; 3.71 µM (inactive) with SNB-19; 4.04 µM (inactive) with OVCAR-8; 3.36 µM (inactive) in the experiment on A498. The GI50 with TK-10 was 3.39 µM (inactive); in the experiment on SK-MEL-28, 2.54 µM (inactive); in the experiment with UO-31 it was 3.48 µM (inactive); in the experiment on OVCAR-5, 1.87 µM (inactive); in the experiment on NCI-H522 it was 1.67 µM (inactive); in the experiment with SF-295, 2.16 µM (inactive). Besides, the GI50 in the experiment with 786-0 was 3.44 µM (inactive); in the experiment with HCC 2998, 0.354 µM (active).
